Patent publication US11279733B2, “Peptide antibiotics” (priority 2017, dated 2022)
≈ marks a conversion by molar mass, not a printed value. Positions of bridges follow the written chain, without caps; N, C: chain ends. Non-standard residues stand in square brackets, D forms with d. Residues, ends and D or L forms follow the SMILES beside them. *: point of attachment. Decanoyl(3R-OH) = CCCCCCC[C@@H](O)CC(=O)*; dPhe(4-F) = N[C@H](Cc1ccc(F)cc1)C(=O)O; d2Nal = N[C@H](Cc1ccc2ccccc2c1)C(=O)O; Igl = N[C@H](C(=O)O)C1Cc2ccccc2C1; 4Pal = N[C@@H](Cc1ccncc1)C(=O)O; dChg = N[C@@H](C(=O)O)C1CCCCC1; dDab = NCC[C@@H](N)C(=O)O; Octanoyl = CCCCCCCC(=O)*; dDap = NC[C@@H](N)C(=O)O; Dab = NCC[C@H](N)C(=O)O

Columns and labels:
[1] = system: A. baumannii ATCC 19606; conditions: ATCC 19606
Outline: (§1)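 Mid-log cultures grown in Mueller Hinton broth at 37° C were tested by 2-fold broth microdilution at 5×10^5 CFU/mL final. Compounds were dissolved in water and tested over a final range of 32 to 0.015 μg/mL.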

[2] = system: A. baumannii GN_093 PmxR; conditions: GN 093 PmxR
Outline: as §1

[3] = system: E. coli ATCC 25922; conditions: ATCC 25922
Outline: as §1

[4] = system: K. pneumoniae ATCC 13883; conditions: ATCC 13883
Outline: as §1

[5] = system: K. pneumoniae ATCC 700603, MDR; conditions: ATCC 700603
Outline: as §1

[6] = system: K. pneumoniae ATCC BAA-2146, NDM-1 pos; conditions: ATCC BAA-2146
Outline: as §1

[7] = system: K. pneumoniae GN_102 PmxR; conditions: GN 102 PmxR
Outline: as §1

[8] = system: K. pneumoniae GN_106, PmxR; conditions: GN 106, PmxR
Outline: as §1

[9] = system: P. aeruginosa ATCC 27853; conditions: ATCC 27853
Outline: as §1

[10] = system: P. aeruginosa GN_043, PmxR; conditions: polymyxin-resistant
Outline: as §1

[11] = system: P. aeruginosa GN_105, PmxR; conditions: GN 105, PmxR
Outline: as §1

[12] = system: S. aureus ATCC 25923, MSSA; conditions: ATCC 25923
Outline: as §1

[13] = in vitro; conditions: human
Outline: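 4000 cells/well, 24 h attach (37 °C, 5% CO2); compound 24 h; 5 μM resazurin 2 h, 37 °C; fluorescence ex/em 560/590. CC50 by curve fit.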

Row | Structure (SMILES) | MIC A. baumannii ATCC 19606 [1] | MIC A. baumannii GN_093 PmxR [2] | MIC E. coli ATCC 25922 [3] | MIC K. pneumoniae ATCC 13883 [4] | MIC K. pneumoniae ATCC 700603, MDR [5] | MIC K. pneumoniae ATCC BAA-2146, NDM-1 pos [6] | MIC K. pneumoniae GN_102 PmxR [7] | MIC K. pneumoniae GN_106, PmxR [8] | MIC P. aeruginosa ATCC 27853 [9] | MIC P. aeruginosa GN_043, PmxR [10] | MIC P. aeruginosa GN_105, PmxR [11] | MIC S. aureus ATCC 25923, MSSA [12] | CC50 at 24 h [13] | other results
1 | CCCCCCC[C@@H](O)CC(=O)N[C@H](CN)C(=O)N[C@H]1CCNC(=O)[C@H](Cc2c[nH]c3ccccc23)NC(=O)[C@H](CCCCN)NC(=O)[C@H](CCCNC(=N)N)NC(=O)[C@H](C2Cc3ccccc3C2)NC(=O)[C@@H](Cc2ccccc2)NC(=O)[C@H](CCN)NC1=O [compound 8890, 3(R)OH-nC9CO-D-Dap-cyc[L-Dab-L-Dab-D-Phe-L-indanylgly-L-Arg-L-Lys-L-Trp]] ({Decanoyl(3R-OH)}-[dDap][Dab][Dab][dF][Igl]RKW; lactam 2-C) | 8 µg/mL (≈ 6.41 µM) | 8 µg/mL (≈ 6.41 µM) | 2 µg/mL (≈ 1.6 µM) | 2 µg/mL (≈ 1.6 µM) | 2 µg/mL (≈ 1.6 µM) | 4 µg/mL (≈ 3.21 µM) | 4 µg/mL (≈ 3.21 µM) | 4 µg/mL (≈ 3.21 µM) | 4 µg/mL (≈ 3.21 µM) | 4 µg/mL (≈ 3.21 µM) | 2 µg/mL (≈ 1.6 µM) | 2 µg/mL (≈ 1.6 µM) | 67 µM | –
2 | CCCCCCC[C@@H](O)CC(=O)N[C@H](CCN)C(=O)N[C@H]1CCNC(=O)[C@H](Cc2c[nH]c3ccccc23)NC(=O)[C@H](CCN)NC(=O)[C@H](CCN)NC(=O)[C@H](CC(C)C)NC(=O)[C@@H](Cc2ccc(F)cc2)NC(=O)[C@H](CCN)NC1=O [compound 8119, 3(R)OH-nC9CO-D-Dab-cyc[L-Dab-L-Dab-L-Dab-D-Phe(4-F)-L-Leu-L-Dab-L-Dab-L-Trp]] ({Decanoyl(3R-OH)}-[dDab][Dab][Dab][dPhe(4-F)]L[Dab][Dab]W; lactam 2-C) | 8 µg/mL (≈ 7.05 µM) | 8 µg/mL (≈ 7.05 µM) | 8 µg/mL (≈ 7.05 µM) | 4 µg/mL (≈ 3.52 µM) | 8 µg/mL (≈ 7.05 µM) | 4 µg/mL (≈ 3.52 µM) | 4 µg/mL (≈ 3.52 µM) | 4 µg/mL (≈ 3.52 µM) | 4 µg/mL (≈ 3.52 µM) | 2 µg/mL (≈ 1.76 µM) | 2 µg/mL (≈ 1.76 µM) | 16 µg/mL (≈ 14.1 µM) | 64 µM | –
3 | CCCCCCC[C@@H](O)CC(=O)N[C@H](CCN)C(=O)N[C@H]1CCNC(=O)[C@H](Cc2c[nH]c3ccccc23)NC(=O)[C@H](CCN)NC(=O)[C@H](CCN)NC(=O)[C@H](CC(C)C)NC(=O)[C@@H](C2CCCCC2)NC(=O)[C@H](CCN)NC1=O [compound 8899, 3(R)OH-nC9CO-D-Dab-cyc[L-Dab-L-Dab-D-Chg-L-Leu-L-Dab-L-Dab-L-Trp]] ({Decanoyl(3R-OH)}-[dDab][Dab][Dab][dChg]L[Dab][Dab]W; lactam 2-C) | 16 µg/mL (≈ 14.4 µM) | 16 µg/mL (≈ 14.4 µM) | 4 µg/mL (≈ 3.61 µM) | 8 µg/mL (≈ 7.21 µM) | 4 µg/mL (≈ 3.61 µM) | 4 µg/mL (≈ 3.61 µM) | 8 µg/mL (≈ 7.21 µM) | 16 µg/mL (≈ 14.4 µM) | 4 µg/mL (≈ 3.61 µM) | 4 µg/mL (≈ 3.61 µM) | 2 µg/mL (≈ 1.8 µM) | 8 µg/mL (≈ 7.21 µM) | 64 µM | –
4 | CCCCCCC[C@@H](O)CC(=O)N[C@H](CCN)C(=O)N[C@H]1CCNC(=O)[C@H](CC(C)C)NC(=O)[C@H](CCN)NC(=O)[C@H](CCN)NC(=O)[C@H](CC(C)C)NC(=O)[C@@H](Cc2ccccc2)NC(=O)[C@H](CCCCN)NC1=O [compound 995, 3(R)OH-nC9CO-D-Dab-cyc[L-Dab-L-Lys-D-Phe-L-Leu-L-Dab-L-Dab-L-Leu]] ({Decanoyl(3R-OH)}-[dDab][Dab]K[dF]L[Dab][Dab]L; lactam 2-C) | – | – | – | – | – | – | – | – | – | – | – | – | > 300 µM | MIC, A. baumannii ATCC 19606 [1]: >32 µg/mL; MIC, A. baumannii Cl Ptyela 10073 4512:2, PmxR [2]: 32 µg/mL (≈ 29.8 µM); MIC, E. coli ATCC 25922 [3]: 8 µg/mL (≈ 7.46 µM); MIC, K. pneumoniae ATCC 13883 [4]: 8 µg/mL (≈ 7.46 µM); MIC, K. pneumoniae ATCC 700603, MDR [5]: 8 µg/mL (≈ 7.46 µM); MIC, K. pneumoniae ATCC BAA-2146, NDM-1 pos [6]: 8 µg/mL (≈ 7.46 µM); MIC, K. pneumoniae Cl Koprana 10065 0661:1, PmxR [7]: 4 µg/mL (≈ 3.73 µM); MIC, K. pneumoniae Cl 138-16347-20362, PmxR [8]: 8 µg/mL (≈ 7.46 µM); MIC, P. aeruginosa ATCC 27853 [9]: 4 µg/mL (≈ 3.73 µM); MIC, P. aeruginosa FADDI-PA070, PmxR ([10]; Table 5): 8 µg/mL (≈ 7.46 µM); MIC, P. aeruginosa PA9704, PmxR [11]: 8 µg/mL (≈ 7.46 µM); MIC, S. Aureus ATCC 25923, MSSA [12]: 32 µg/mL (≈ 29.8 µM)
5 | CCCCCCCC(=O)N[C@H](CCN)C(=O)N[C@H]1CCNC(=O)[C@H](Cc2c[nH]c3ccccc23)NC(=O)[C@H](CCN)NC(=O)[C@H](CCN)NC(=O)[C@H](C2Cc3ccccc3C2)NC(=O)[C@@H](Cc2ccccc2)NC(=O)[C@H](CCN)NC1=O [compound 8898, nC7CO-D-Dab-cyc[L-Dab-L-Dab-D-Phe-L-indanylgly-L-Dab-L-Dab-L-Trp]] (Octanoyl-[dDab][Dab][Dab][dF][Igl][Dab][Dab]W; lactam 2-C) | 16 µg/mL (≈ 14.1 µM) | 16 µg/mL (≈ 14.1 µM) | 4 µg/mL (≈ 3.53 µM) | 8 µg/mL (≈ 7.06 µM) | 4 µg/mL (≈ 3.53 µM) | 4 µg/mL (≈ 3.53 µM) | 4 µg/mL (≈ 3.53 µM) | 8 µg/mL (≈ 7.06 µM) | 4 µg/mL (≈ 3.53 µM) | 4 µg/mL (≈ 3.53 µM) | 4 µg/mL (≈ 3.53 µM) | 4 µg/mL (≈ 3.53 µM) | 90 µM | –
6 | CCCCCCC[C@@H](O)CC(=O)N[C@H](CCCNC(=N)N)C(=O)N[C@H]1CCNC(=O)[C@H](Cc2c[nH]c3ccccc23)NC(=O)[C@H](CCN)NC(=O)[C@H](CCN)NC(=O)[C@H](CC(C)C)NC(=O)[C@@H](Cc2ccccc2)NC(=O)[C@H](CCN)NC1=O [compound 8884, nC10-3(R)OH-D-Arg-cyc[L-Dab-L-Dab-D-Phe-L-Leu-L-Dab-L-Dab-L-Trp]] ({Decanoyl(3R-OH)}-[dR][Dab][Dab][dF]L[Dab][Dab]W; lactam 2-C) | 32 µg/mL (≈ 27.3 µM) | 32 µg/mL (≈ 27.3 µM) | 4 µg/mL (≈ 3.41 µM) | 16 µg/mL (≈ 13.6 µM) | 4 µg/mL (≈ 3.41 µM) | 8 µg/mL (≈ 6.82 µM) | 32 µg/mL (≈ 27.3 µM) | 16 µg/mL (≈ 13.6 µM) | 4 µg/mL (≈ 3.41 µM) | 4 µg/mL (≈ 3.41 µM) | 16 µg/mL (≈ 13.6 µM) | 16 µg/mL (≈ 13.6 µM) | 73 µM | –
7 | CCCCCCC[C@@H](O)CC(=O)N[C@H](CCN)C(=O)N[C@H]1CCNC(=O)[C@H](Cc2c[nH]c3ccccc23)NC(=O)[C@H](CCN)NC(=O)[C@H](CCN)NC(=O)[C@H](CC(C)C)NC(=O)[C@@H](Cc2ccc3ccccc3c2)NC(=O)[C@H](CCN)NC1=O [compound 8113, 3(R)OH-nC9CO-D-Dab-cyc[L-Dab-L-Dab-L-Dab-D-Ala(2-Na)-L-Leu-L-Dab-L-Dab-L-Trp]] ({Decanoyl(3R-OH)}-[dDab][Dab][Dab][d2Nal]L[Dab][Dab]W; lactam 2-C) | 8 µg/mL (≈ 6.85 µM) | 8 µg/mL (≈ 6.85 µM) | 8 µg/mL (≈ 6.85 µM) | 4 µg/mL (≈ 3.43 µM) | 8 µg/mL (≈ 6.85 µM) | 8 µg/mL (≈ 6.85 µM) | 8 µg/mL (≈ 6.85 µM) | 8 µg/mL (≈ 6.85 µM) | 8 µg/mL (≈ 6.85 µM) | 4 µg/mL (≈ 3.43 µM) | 4 µg/mL (≈ 3.43 µM) | 4 µg/mL (≈ 3.43 µM) | 28 µM | –
8 | CCCCCCC[C@@H](O)CC(=O)N[C@H](CCN)C(=O)N[C@H]1CCNC(=O)[C@H](Cc2ccncc2)NC(=O)[C@H](CCN)NC(=O)[C@H](CCN)NC(=O)[C@H](CC(C)C)NC(=O)[C@@H](Cc2ccccc2)NC(=O)[C@H](CCN)NC1=O [compound 8906, 3(R)OH-nC9CO-D-Dab-cyc[L-Dab-L-Dab-D-Phe-L-Leu-L-Dab-L-Dab-L-Ala(4py)]] ({Decanoyl(3R-OH)}-[dDab][Dab][Dab][dF]L[Dab][Dab][4Pal]; lactam 2-C) | >32 µg/mL | >32 µg/mL | 4 µg/mL (≈ 3.71 µM) | 4 µg/mL (≈ 3.71 µM) | 4 µg/mL (≈ 3.71 µM) | 8 µg/mL (≈ 7.41 µM) | 16 µg/mL (≈ 14.8 µM) | 16 µg/mL (≈ 14.8 µM) | 1 µg/mL (≈ 0.926 µM) | 0.5 µg/mL (≈ 0.463 µM) | 2 µg/mL (≈ 1.85 µM) | >32 µg/mL | > 300 µM | –
